molecular target: ATM (Homo sapiens (Human), UniProt Q13315); assay: biochemical; format: biochemical; conditions: read-out: ATM IC50
From the text: Assay a): ATM Biochemical Potency
Data was collected by Caliper.

Sequence of ATM (Q13315 whole entry, looked up): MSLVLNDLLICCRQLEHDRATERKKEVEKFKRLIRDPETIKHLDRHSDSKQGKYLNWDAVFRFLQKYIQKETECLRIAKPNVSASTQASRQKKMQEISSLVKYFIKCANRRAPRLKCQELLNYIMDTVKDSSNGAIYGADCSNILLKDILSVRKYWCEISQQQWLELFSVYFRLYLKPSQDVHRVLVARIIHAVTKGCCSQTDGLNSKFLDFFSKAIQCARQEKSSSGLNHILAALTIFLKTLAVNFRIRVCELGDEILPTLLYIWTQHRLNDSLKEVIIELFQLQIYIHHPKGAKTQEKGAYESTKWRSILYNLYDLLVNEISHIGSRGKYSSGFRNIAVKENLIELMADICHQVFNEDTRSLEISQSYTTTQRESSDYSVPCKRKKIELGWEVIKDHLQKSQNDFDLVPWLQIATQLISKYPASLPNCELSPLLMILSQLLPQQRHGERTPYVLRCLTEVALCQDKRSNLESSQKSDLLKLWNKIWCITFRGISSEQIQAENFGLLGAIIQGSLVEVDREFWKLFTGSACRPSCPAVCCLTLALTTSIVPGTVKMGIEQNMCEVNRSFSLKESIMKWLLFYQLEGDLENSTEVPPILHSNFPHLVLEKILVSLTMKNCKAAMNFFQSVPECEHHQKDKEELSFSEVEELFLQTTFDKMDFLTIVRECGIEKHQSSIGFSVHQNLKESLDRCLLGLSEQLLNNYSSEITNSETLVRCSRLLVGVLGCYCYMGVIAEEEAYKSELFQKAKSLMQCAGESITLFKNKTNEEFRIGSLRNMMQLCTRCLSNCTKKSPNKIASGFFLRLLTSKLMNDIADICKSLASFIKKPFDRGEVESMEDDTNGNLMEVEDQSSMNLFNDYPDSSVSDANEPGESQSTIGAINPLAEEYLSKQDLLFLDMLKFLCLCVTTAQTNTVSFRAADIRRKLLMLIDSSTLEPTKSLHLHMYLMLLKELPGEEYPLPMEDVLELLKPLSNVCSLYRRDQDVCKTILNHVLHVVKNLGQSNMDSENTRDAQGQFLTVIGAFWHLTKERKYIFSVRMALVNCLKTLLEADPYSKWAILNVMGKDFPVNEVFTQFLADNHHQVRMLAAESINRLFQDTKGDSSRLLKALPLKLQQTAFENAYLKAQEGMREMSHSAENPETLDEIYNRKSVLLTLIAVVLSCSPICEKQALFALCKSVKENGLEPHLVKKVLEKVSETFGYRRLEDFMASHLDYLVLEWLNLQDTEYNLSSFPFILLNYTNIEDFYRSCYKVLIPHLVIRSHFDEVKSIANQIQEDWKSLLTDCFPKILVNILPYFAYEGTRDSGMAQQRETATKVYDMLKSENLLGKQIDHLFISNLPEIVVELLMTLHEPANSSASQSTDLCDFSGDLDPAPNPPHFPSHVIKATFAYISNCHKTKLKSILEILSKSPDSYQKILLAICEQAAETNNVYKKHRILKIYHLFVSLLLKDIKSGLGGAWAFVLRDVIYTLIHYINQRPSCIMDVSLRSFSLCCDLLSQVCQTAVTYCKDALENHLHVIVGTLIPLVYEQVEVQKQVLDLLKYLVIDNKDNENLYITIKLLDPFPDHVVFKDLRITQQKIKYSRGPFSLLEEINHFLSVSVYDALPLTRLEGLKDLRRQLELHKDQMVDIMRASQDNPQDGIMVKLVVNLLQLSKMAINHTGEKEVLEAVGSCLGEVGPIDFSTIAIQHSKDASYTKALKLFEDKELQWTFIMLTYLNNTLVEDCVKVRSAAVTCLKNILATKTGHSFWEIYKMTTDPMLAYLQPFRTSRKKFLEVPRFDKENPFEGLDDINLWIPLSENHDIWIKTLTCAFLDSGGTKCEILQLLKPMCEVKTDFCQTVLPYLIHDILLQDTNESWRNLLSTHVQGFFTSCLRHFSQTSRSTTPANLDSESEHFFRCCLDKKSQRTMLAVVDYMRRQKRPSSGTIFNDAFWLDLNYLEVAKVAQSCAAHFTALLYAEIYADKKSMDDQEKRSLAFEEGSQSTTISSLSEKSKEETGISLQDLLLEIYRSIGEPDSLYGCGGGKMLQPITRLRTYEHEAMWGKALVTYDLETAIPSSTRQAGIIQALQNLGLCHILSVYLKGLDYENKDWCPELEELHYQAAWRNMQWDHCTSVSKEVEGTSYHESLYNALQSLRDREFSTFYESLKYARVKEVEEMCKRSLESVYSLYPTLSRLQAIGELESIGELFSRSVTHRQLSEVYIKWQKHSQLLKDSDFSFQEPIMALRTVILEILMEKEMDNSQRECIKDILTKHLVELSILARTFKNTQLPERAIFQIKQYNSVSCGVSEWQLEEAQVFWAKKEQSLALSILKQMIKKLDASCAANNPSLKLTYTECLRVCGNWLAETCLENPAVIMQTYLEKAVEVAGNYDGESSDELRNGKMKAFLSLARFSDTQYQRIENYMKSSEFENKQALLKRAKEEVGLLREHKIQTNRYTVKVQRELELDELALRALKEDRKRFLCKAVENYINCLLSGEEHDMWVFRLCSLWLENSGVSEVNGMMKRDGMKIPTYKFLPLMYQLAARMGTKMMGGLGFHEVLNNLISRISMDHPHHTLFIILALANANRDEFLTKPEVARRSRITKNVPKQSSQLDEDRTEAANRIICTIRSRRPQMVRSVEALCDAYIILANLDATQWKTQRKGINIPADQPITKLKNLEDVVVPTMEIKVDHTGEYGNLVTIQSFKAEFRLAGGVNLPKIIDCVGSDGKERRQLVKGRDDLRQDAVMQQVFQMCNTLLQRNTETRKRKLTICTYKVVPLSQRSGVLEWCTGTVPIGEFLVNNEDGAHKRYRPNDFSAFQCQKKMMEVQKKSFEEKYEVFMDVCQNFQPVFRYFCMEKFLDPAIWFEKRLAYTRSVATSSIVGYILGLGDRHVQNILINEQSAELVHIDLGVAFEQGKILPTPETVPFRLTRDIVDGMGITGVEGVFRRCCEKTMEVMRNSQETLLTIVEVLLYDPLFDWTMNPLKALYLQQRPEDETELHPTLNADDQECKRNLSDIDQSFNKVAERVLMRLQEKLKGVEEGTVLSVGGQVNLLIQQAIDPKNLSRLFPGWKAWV

Compound	IC50
CC(C)n1c(=O)n(C)c2nnc3ccc(-c4ccc(COC5CC(N(C)C)C5)nc4)cc3c21 (centres unmarked) [Example 14, 8-(6-((3-(dimethylamino)cyclobuto-xy)methyl)pyridin-3-yl)-1-isopropyl-3-methyl-1H-imidazo[4,5-c]cinnolin-2(3H)-one]	68 nM
CC(C)n1c(=O)n(C)c2nnc3ccc(-c4ccc(COC5CN(C)C5)nc4)cc3c21 [Example 15, 1-isopropyl-3-methyl-8-(6-(((1-methylazetidin-3-yl)oxy)methyl)pyridin-3-yl)-1H-imidazo[4,5-c]cinnolin-2(3H)-one]	134 nM
CC(COCc1ccc(-c2ccc3nnc4c(c3c2)n(C(C)C)c(=O)n4C)cn1)N1CC2CC2C1 (centres unmarked) [Example 16, 8-(6-((2-(3-azabicyclo[3.1.0]hexan-3-yl)propoxy)methyl)pyridin-3-yl)-1-isopropyl-3-methyl-1H-imidazo[4,5-c]cinnolin-2(3H)-one]	201 nM
CC(C)n1c(=O)n(C)c2nnc3ccc(-c4ccc(COCC(C)(C)N5CC6CC6C5)nc4)cc3c21 (centres unmarked) [Example 17, 8-(6-((2-(3-azabicyclo[3.1.0]hexan-3-yl)-2-methylpropoxy)methyl)pyridin-3-yl)-1-isopropyl-3-methyl-1H-imidazo[4,5-c]cinnolin-2(3H)-one]	464 nM
CC(C)n1c(=O)n(C)c2nnc3ccc(-c4ccc(COCC5(N6CC7CC7C6)CC5)nc4)cc3c21 (centres unmarked) [Example 18, 8-(6-(((1-(3-azabicyclo[3.1.0]hexan-3-yl)cyclopropyl)methoxy)methyl)pyridin-3-yl)-1-isopropyl-3-methyl-1H-imidazo[4,5-c]cinnolin-2(3H)-one]	377 nM
CC(C)n1c(=O)n(C)c2nnc3ccc(-c4ccc(COCC5CCCN(C)C5)nc4)cc3c21 (centres unmarked) [Example 19, 1-isopropyl-3-methyl-8-(6-(((1-methylpiperidin-3-yl)methoxy)methyl)pyridin-3-yl)-1H-imidazo[4,5-c]cinnolin-2(3H)-one]	99 nM
CC(C)n1c(=O)n(C)c2nnc3ccc(-c4ccc(COCC5CCN(C)C5)nc4)cc3c21 (centres unmarked) [Example 20, 1-isopropyl-3-methyl-8-(6-(((1-methylpyrrolidin-3-yl)methoxy)methyl)pyridin-3-yl)-1H-imidazo[4,5-c]cinnolin-2(3H)-one]	51 nM
CC(CN1CC2CC2C1)OCc1ccc(-c2ccc3nnc4c(c3c2)n(C(C)C)c(=O)n4C)cn1 (centres unmarked) [Example 21, 8-(6-(((1-(3-azabicyclo[3.1.0]hexan-3-yl)propan-2-yl)oxy)methyl)pyridin-3-yl)-1-isopropyl-3-methyl-1H-imidazo[4,5-c]cinnolin-2(3H)-one]	139 nM
CC(C)n1c(=O)n(C)c2nnc3ccc(-c4ccc(COC5(CN6CC7CC7C6)CC5)nc4)cc3c21 (centres unmarked) [Example 23, 8-(6-((1-(3-azabicyclo[3.1.0]hexan-3-ylmethyl)cyclopropoxy)methyl)pyridin-3-yl)-1-isopropyl-3-methyl-1H-imidazo[4,5-c]cinnolin-2(3H)-one]	420 nM
CC(C)n1c(=O)n(C)c2nnc3ccc(-c4ccc(COCCN5CCC(C#N)CC5)nc4)cc3c21 [Example 24, 1-(2-((5-(1-isopropyl-3-methyl-2-oxo-2,3-dihydro-1H-imidazo[4,5-c]cinnolin-8-yl)pyridin-2-yl)methoxy)ethyl)pyiperidine-4-carbonitrile]	26 nM
CC(C)n1c(=O)n(C)c2nnc3ccc(-c4ccc(COCCN5CCC(C#N)C5)nc4)cc3c21 (centres unmarked) [Example 25]	71 nM
CC(C)n1c(=O)n(C)c2nnc3ccc(-c4ccc(COCCN5CCC6(CC6)C5)nc4)cc3c21 [Example 26, 8-(6-((2-(5-azaspiro[2.4]heptan-5-yl)ethoxy)methyl)pyridin-3-yl)-1-isopropyl-3-methyl-1H-imidazo[4,5-c]cinnolin-2(3H)-one]	14 nM
COC1CCN(CCOCc2ccc(-c3ccc4nnc5c(c4c3)n(C(C)C)c(=O)n5C)cn2)CC1 [Example 27, 1-isopropyl-8-(6-((2-(4-methoxypiperidin-1-yl)ethoxy)methyl)pyridin-3-yl)-3-methyl-1H-imidazo[4,5-c]cinnolin-2(3H)-one]	92 nM
CC(C)n1c(=O)n(C)c2nnc3ccc(-c4ccc(COCCN5CC[C@@H](F)C5)nc4)cc3c21 [Example 28, (R)-8-(6-((2-(3-fluoropyrrolidin-1-yl)ethoxy)methyl)pyridin-3-yl)-1-isopropyl-3-methyl-1H-imidazo[4,5-c]cinnolin-2(3H)-one]	81 nM
CC(C)n1c(=O)n(C)c2nnc3ccc(-c4ccc(COCCN5CCC[C@@H]5C)nc4)cc3c21 [Example 29, (S)-1-isopropyl-3-methyl-8-(6-((2-(2-methylpyrrolidin-1-yl)ethoxy)methyl)pyridin-3-yl)-1H-imidazo[4,5-c]cinnolin-2(3H)-one]	68 nM
CC(C)n1c(=O)n(C)c2nnc3ccc(-c4ccc(COCCN5CCC(F)(F)CC5)nc4)cc3c21 [Example 30, 8-(6-((2-(4,4-difluoropiperidin-1-yl)ethoxy)methyl)pyridin-3-yl)-1-isopropyl-3-methyl-1H-imidazo[4,5-c]cinnolin-2(3H)-one]	62 nM

Compound	IC50
CC(C)n1c(=O)n(C)c2nnc3ccc(-c4ccc(COCCN5CCN(C)CC5)nc4)cc3c21 [Example 32, 1-isopropyl-3-methyl-8-(6-((2-(4-methylpiperazin-1-yl)ethoxy)methyl)pyridin-3-yl)-1H-imidazo[4,5-c]cinnolin-2(3H)-one]	304 nM
CC(C)n1c(=O)n(C)c2nnc3ccc(-c4ccc(COCCN5CCOCC5)nc4)cc3c21 [Example 33, 1-isopropyl-3-methyl-8-(6-((2-morpholinoethoxy)methyl)pyridin-3-yl)-1H-imidazo[4,5-c]cinnolin-2(3H)-one]	58 nM
CC(C)n1c(=O)n(C)c2nnc3ccc(-c4ccc(COCCN5CC[C@H](F)C5)nc4)cc3c21 [Example 34, (S)-8-(6-((2-(3-fluoropyrrolidin-1-yl)ethoxy)methyl)pyridin-3-yl)-1-isopropyl-3-methyl-1H-imidazo[4,5-c]cinnolin-2(3H)-one]	47 nM
CC(C)n1c(=O)n(C)c2nnc3ccc(-c4ccc(COCCN5CCC[C@H]5C)nc4)cc3c21 [Example 35, (R)-1-isopropyl-3-methyl-8-(6-((2-(2-methylpyrrolidin-1-yl)ethoxy)methyl)pyridin-3-yl)-1H-imidazo[4,5-c]cinnolin-2(3H)-one]	43 nM
CC(C)n1c(=O)n(C)c2nnc3ccc(-c4ccc(COCCN5CC(N(C)C)C5)nc4)cc3c21 [Example 37, 8-(6-((2-(3-(dimethylamino)azetidin-1-yl)ethoxy)methyl)pyridin-3-yl)-1-isopropyl-3-methyl-1H-imidazo[4,5-c]cinnolin-2(3H)-one]	78 nM
CC(C)n1c(=O)n(C)c2nnc3ccc(-c4ccc(COCCN5CCCC(F)C5)nc4)cc3c21 (centres unmarked) [Example 38, 8-(6-((2-(3-fluoropiperidin-1-yl)ethoxy)methyl)pyridin-3-yl)-1-isopropyl-3-methyl-1H-imidazo[4,5-c]cinnolin-2(3H)-one]	57 nM
CC(C)n1c(=O)n(C)c2nnc3ccc(-c4ccc(COCCN5CC6CCC5C6)nc4)cc3c21 (centres unmarked) [Example 39, 8-(6-((2-(2-azabicyclo[2.2.1]heptan-2-yl)ethoxy)methyl)pyridin-3-yl)-1-isopropyl-3-methyl-1H-imidazo[4,5-c]cinnolin-2(3H)-one]	73 nM
CC(C)n1c(=O)n(C)c2nnc3ccc(-c4ccc(COCCN5CCCC6(CCC6)C5)nc4)cc3c21 [Example 40, 8-(6-((2-(6-azaspiro[3.5]nonan-6-yl)ethoxy)methyl)pyridin-3-yl)-1-isopropyl-3-methyl-1H-imidazo[4,5-c]cinnolin-2(3H)-one]	24 nM
COC1CCCN(CCOCc2ccc(-c3ccc4nnc5c(c4c3)n(C(C)C)c(=O)n5C)cn2)C1 (centres unmarked) [Example 41, 1-isopropyl-8-(6-((2-(3-methoxypiperidin-1-yl)ethoxy)methyl)pyridin-3-yl)-3-methyl-1H-imidazo[4,5-c]cinnolin-2(3H)-one]	50 nM
CC(C)n1c(=O)n(C)c2nnc3ccc(-c4ccc(COCCN5CC[C@H](N(C)C)C5)nc4)cc3c21 [Example 42, (S)-8-(6-((2-(3-(dimethylamino)pyrrolidin-1-yl)ethoxy)methyl)pyridin-3-yl)-1-isopropyl-3-methyl-1H-imidazo[4,5-c]cinnolin-2(3H)-one]	44 nM
COC1CCN(CCOCc2ccc(-c3ccc4nnc5c(c4c3)n(C(C)C)c(=O)n5C)cn2)CC1 [Example 44, 1-isopropyl-8-(6-((2-(4-methoxypiperidin-1-yl)ethoxy)methyl)pyridin-3-yl)-3-methyl-1H-imidazo[4,5-c]cinnolin-2(3H)-one]	12 nM
CC(C)n1c(=O)n(C)c2nnc3ccc(-c4ccc(COCCN5[C@H](C)CC[C@@H]5C)nc4)cc3c21 [Example 45, 8-(6-((2-((2R,5S)-2,5-dimethylpyrrolidin-1-yl)ethoxy)methyl)pyridin-3-yl)-1-isopropyl-3-methyl-1H-imidazo[4,5-c]cinnolin-2(3H)-one]	84 nM
CC(C)n1c(=O)n(C)c2nnc3ccc(-c4ccc(COCCN5CC[C@@H](N(C)C)C5)nc4)cc3c21 [Example 46, (R)-8-(6-((2-(3-(dimethylamino)pyrrolidin-1-yl)ethoxy)methyl)pyridin-3-yl)-1-isopropyl-3-methyl-1H-imidazo[4,5-c]cinnolin-2(3H)-one]	76 nM
CC(C)n1c(=O)n(C)c2nnc3ccc(-c4ccc(COCCN5CCC(OC(F)(F)F)CC5)nc4)cc3c21 [Example 47, 1-isopropyl-3-methyl-8-(6-((2-(4-(trifluoromethoxy)piperidin-1-yl)ethoxy)methyl)pyridin-3-yl)-1H-imidazo[4,5-c]cinnolin-2(3H)-one]	2.2 nM
CC(C)n1c(=O)n(C)c2nnc3ccc(-c4ccc(COCCN5CC6C(C5)C6(F)F)nc4)cc3c21 (centres unmarked) [Example 48, 8-(6-((2-(6,6-difluoro-3-azabicyclo[3.1.0]hexan-3-yl)ethoxy)methyl)pyridin-3-yl)-1-isopropyl-3-methyl-1H-imidazo[4,5-c]cinnolin-2(3H)-one]	17 nM
CC(C)n1c(=O)n(C)c2nnc3ccc(-c4ccc(COCCN5CCC6(CCC6)CC5)nc4)cc3c21 [Example 49, 8-(6-((2-(7-azaspiro[3.5]nonan-7-yl)ethoxy)methyl)pyridin-3-yl)-1-isopropyl-3-methyl-1H-imidazo[4,5-c]cinnolin-2(3H)-one]	2.8 nM

Source: US20240207263A1, “SELECTIVE MODULATORS OF ATAXIA TELA[…] (ATM) KINASE AND USES THEREOF” (priority 2021, published 2024)
